Laboratory results from patent US4971969A, “Pharmaceutical composition containing 1-(mono- or bis(trifluoromethyl)-2-pyridinyl)piperazines” (priority 1988, dated 1990).
Read-outs that look alike come from different tables or passages of the source.

Legend:
5HT1A receptors = biological target: T1, 5HT1A receptors (Rattus norvegicus, UniProt P19327); assay: Binding test: displacement of [^3 H]-8-OH-DPAT from membranes of the rat hippocampus (5HT1A)
T1 construct: membranes of the rat hippocampus; from tissue; host or cells: rat hippocampus membranes
T1 sequence (P19327 1-422): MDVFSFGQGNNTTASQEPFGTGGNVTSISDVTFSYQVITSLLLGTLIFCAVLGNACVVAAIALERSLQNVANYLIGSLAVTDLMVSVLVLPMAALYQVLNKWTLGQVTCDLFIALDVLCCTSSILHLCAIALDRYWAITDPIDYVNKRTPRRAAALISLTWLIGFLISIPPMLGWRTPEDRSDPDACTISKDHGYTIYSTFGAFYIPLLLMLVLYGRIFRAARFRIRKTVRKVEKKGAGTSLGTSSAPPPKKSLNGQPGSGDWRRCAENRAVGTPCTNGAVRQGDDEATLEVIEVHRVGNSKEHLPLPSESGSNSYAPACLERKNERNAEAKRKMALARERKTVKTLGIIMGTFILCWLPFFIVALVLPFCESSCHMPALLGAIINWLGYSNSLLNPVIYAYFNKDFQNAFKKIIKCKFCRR
Description: (§1) This test is carried out according to the protocol of PEROUTKA, S.J. ["Selective labelling of 5-HT1A and 5HT1B binding sites in bovine brain" BRAIN RESEARCH 344, p. 167-171 (1985)]. In this test, the affinity for 5HT1A receptors is determined by the Capacity of the compounds to displace [^3 H]-8-OH-DPAT from the membranes of the rat hippocampus; similarly, the affinity for 5HT1B receptors is determined by the capacity of the compounds to displace [^3 H]-5HT from the membranes of the rat striatum.
(§2) The results recorded in Table II below show the pKi values calculated according to the abovementioned protocol.

5HT1B receptors = biological target: T2, 5HT1B receptors (Rattus norvegicus, UniProt P28564); assay: Binding test: displacement of [^3 H]-5HT from membranes of the rat striatum (5HT1B)
T2 construct: membranes of the rat striatum; from tissue; host or cells: rat striatum membranes
Description: as §1, §2

5HT1B = assay: Penile erection test (5HT1B agonist potential); assay type: in vivo; details: rats; for minimal effective dose: Rattus norvegicus, sc, administered subcutaneously, read-out: ERECTION OF THE PENIS, minimum dose which leads to an erection of the penis, subcutaneous; for ERECTION OF THE PENIS, activity when administered orally: administered orally (PO)
Text: This test, carried out according to the protocol of BERENDSEN H.H.G. and BROEKKAMP C.L.E. ["Drug induced penile erections in rats: indication of serotonin 1B receptor mediation--EUROPEAN J. PHARMACOL. 135, 279-287 (1987")]enables the 5HT1B agonist potentials of the various compounds to be assessed.
The results recorded in Table II below show the minimum dose in mg.kg^-1 administered subcutaneously which leads to an erection of the penis in rats, as well as the activity when administered orally.

[1] = rat hippocampus membranes, [^3 H]-8-OH-DPAT, read-out: BINDING pKi 5HT1A (converted)
[2] = rat striatum membranes, [^3 H]-5HT, read-out: BINDING pKi 5HT1B (converted)

T2 sequence (P28564 whole entry): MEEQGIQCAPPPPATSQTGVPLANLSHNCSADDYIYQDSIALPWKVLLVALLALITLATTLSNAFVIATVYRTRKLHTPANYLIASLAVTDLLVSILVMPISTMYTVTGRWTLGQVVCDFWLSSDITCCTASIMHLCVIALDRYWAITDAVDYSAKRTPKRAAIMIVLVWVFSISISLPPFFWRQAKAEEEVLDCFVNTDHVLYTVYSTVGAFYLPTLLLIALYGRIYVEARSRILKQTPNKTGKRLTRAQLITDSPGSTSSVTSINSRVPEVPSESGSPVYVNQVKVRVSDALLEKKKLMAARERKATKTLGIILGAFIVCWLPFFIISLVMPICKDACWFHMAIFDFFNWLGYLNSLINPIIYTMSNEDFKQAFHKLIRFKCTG

Compound: FC(F)(F)c1ccc(N2CCNCC2)nc1 [Compound 1, 1-(5-trifluoromethyl-2-pyridinyl)piperazine]
- Ki (5HT1A receptors; [1]): > 10000 nM
- Ki (5HT1B receptors; [2]): 501 nM
- minimal effective dose (5HT1B): 1 mg/kg
- ERECTION OF THE PENIS, activity when administered orally (5HT1B): > 46 mg/kg

Compound: FC(F)(F)c1ccnc(N2CCNCC2)c1 [Compound 2, 1-(4-trifluoromethyl-2-pyridinyl)piperazine]
- Ki (5HT1A receptors; [1]): 2510 nM
- Ki (5HT1B receptors; [2]): 126 nM
- minimal effective dose (5HT1B): 1 mg/kg
- ERECTION OF THE PENIS, activity when administered orally (5HT1B): 2.2 mg/kg

Compound: FC(F)(F)c1ccc(N2CCNCC2)nc1Cl [Compound 3]
- Ki (5HT1A receptors): 2510 nM
- Ki (5HT1B receptors): 100 nM
- minimal effective dose (5HT1B): 0.46 mg/kg
- ERECTION OF THE PENIS, activity when administered orally (5HT1B): 4.6 mg/kg

Compound: FC(F)(F)c1cnc(N2CCNCC2)cc1C(F)(F)F [Compound 4, 1-[4,5-bis(trifluoromethyl)-2-pyridinyl]piperazine]
- Ki (5HT1A receptors; [1]): 79400 nM
- Ki (5HT1B receptors; [2]): 398 nM
- minimal effective dose (5HT1B): 10 mg/kg
- ERECTION OF THE PENIS, activity when administered orally (5HT1B): 2.2 mg/kg

Compound: FC(F)(F)c1cnc(N2CCNCC2)c(Cl)c1 [Compound 5, 1-(3-chloro-5-trifluoromethyl-2-pyridinyl)piperazine]
- Ki (5HT1A receptors; [1]): 3980 nM
- Ki (5HT1B receptors; [2]): 501 nM
- minimal effective dose (5HT1B): 4.6 mg/kg
- ERECTION OF THE PENIS, activity when administered orally (5HT1B): 10 mg/kg
